From patent publication US4551273A, “Analgesic peptide and process for the preparation thereof” (Eisai Co., Ltd., priority 1983, dated 1985)

What was measured:
[1] = peptide purified from pig duodenum; cited from earlier work
kappa-receptor = kappa-receptor (Homo sapiens, UniProt P41145); conditions: subclass of opiate receptor; different from the μ-receptor; cited from earlier work
[2] = administered intraventricularly; cited from earlier work
[3] = tested on: writhing syndrome in ddY male mouse; test: Acetic acid writhing assay; format: in vivo; conditions: for ED50, Method (A), intravenous / ED50, Method (A), intraventricular: mouse; for ED50, Method (A), intravenous: intravenous (tail vein) administration, acetic acid 10 min after sample; for ED50, Method (A), intraventricular: intraventricular administration, acetic acid 5 min after sample
Protocol: (§1) The following two methods (A) and (B) were employed to examine the analgesic effects of the sample resulting from intravenous or intraventricular administration.
(§2) The sample and control were injected to the tail vein in the case of intravenous administration and to the side cerebral ventricle in the case of intraventricular administration according to a method reported by Haley and McCormick(1).
(A) Acetic acid writhing assay
0.1 ml/10 g of a 0.7% solution of acetic acid was administered to a ddY male mouse of 20 to 26 g in body weight by an intraabdominal injection to examine the inhibiting effect on writhing syndrome which was mainly observed as a stretching of the hind legs as an indication of the analgesic effect. Acetic acid was administered intraabdominally five min after the intraventricular administration and 10 min after the intravenous administration of the sample. Then the resulting writhing syndromes were counted for 15 min.

[4] = tested on: biting response induced by pinching the mouse tail; test: Tail pinch assay; format: in vivo; conditions: intraventricular administration
Protocol: as §1, §2
Response time had been previously determined by a pressure stimulation to select the mice which had responded within 3 sec for the experiment. According to a method reported by Takagi et al.(3), the degree of pain was scored in the following three stages depending on the response time; 0 (shorter than four sec), 1 (four to eight sec), 2 (longer than eight sec). The analgesic effect was calculated by the following equation: [formula]

[5] = tested on: guinea pig longitudinal muscle of ileum; test: Assay with guinea pig longitudinal muscle of ileum (inhibition of electrically stimulated contraction); format: tissue-based
Protocol: (A) Assay with guinea pig longitudinal muscle of ileum
This assay was carried out according to the method reported by H. W. Kosterlitz et al. A mature guinea pig was sacrificed by cutting its jugular and subjected to an abdominal operation to take out its ileum as a piece of 40 to 50 cm in length from a region 15 to 20 cm apart from the ileocecal region. Then it was immediately introduced into Ringer's solution and cut into 10 cm portions. The longitudinal muscle was peeled off from each piece by using a scalpel and an applicator, wound with a string and suspended in an isothermal glass cell of 6 ml in volume. Subsequently it was stimulated electrically (0.1 Hz, 0.5 ms, 80-90 V) with platinum electrodes fitted at the upper and lower sides of the cell to record the resulting contractions through a transducer.
H. W. Kosterlitz, A. A. Waterfield: Annu. Rev. Pharmacol., 15, 29 (1975).

mouse vas deferens = test: Assay with mouse vas deferens (inhibition of electrically stimulated contraction); parameters: species or system isolated tissue
Protocol: (B) Assay with mouse vas deferens
This assay was carried out according to the method reported by Hughes et al. A mature male mouse was decapitated and phlebotomized. Then it was immediately subjected to an abdominal operation to take out its right and left vas deferens. Sperm clogged in the ducts was forced out with a pincette in Ringer's solution and both ends of the two ducts were united with a string to form a ring. Then it was stimulated electrically (0.1 Hz, 1 ms, 90 V) in the same manner as described in (A).
Hughes H. W., Kosterlitz H. W., Leslie F. M.: Br. J. Pharmacol., 53, 371 (1975).

Sequence of kappa-receptor (P41145 whole entry): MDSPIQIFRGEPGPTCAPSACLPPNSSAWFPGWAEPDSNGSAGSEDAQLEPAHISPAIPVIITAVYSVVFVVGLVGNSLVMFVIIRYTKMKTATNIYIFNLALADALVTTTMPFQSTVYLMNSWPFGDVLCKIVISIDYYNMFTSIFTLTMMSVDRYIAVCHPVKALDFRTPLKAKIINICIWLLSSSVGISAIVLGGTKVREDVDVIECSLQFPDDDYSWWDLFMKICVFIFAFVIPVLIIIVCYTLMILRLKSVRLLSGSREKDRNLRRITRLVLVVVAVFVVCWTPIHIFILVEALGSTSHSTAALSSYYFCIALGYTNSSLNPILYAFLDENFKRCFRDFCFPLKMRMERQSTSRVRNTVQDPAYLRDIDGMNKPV

For “Tyr-Gly-Gly-Phe-Leu-Arg-Arg-Ile-Arg-Pro-Lys-Leu-Lys-Trp-Asp-Asp-Gln (YGGFLRRIRPKLKWDDQ; printed: Tyr-Gly-Gly-Phe-Leu-Arg-Arg-Ile-Arg-Pro-Lys-Leu-Lys-Trp-Asp-Asp-Gln) [prototype peptide, opioid peptide from pig duodenum, found earlier by some of the inventors; called prototype peptide in b11]”, the “morphine-like activity relative to morphine” value [1] is listed as “several hundred times as high as morphine”, the receptor selectivity (kappa-receptor) is listed as “combined selectively with a kappa-receptor” and the analgesic effect [2] is listed as “high analgesic effect”.

With `CN1CC[C@]23c4c5ccc(O)c4O[C@H]2[C@@H](O)C=C[C@H]3[C@H]1C5` [Morphine, reference compound] the “ED50, Method (A), intravenous” value [3] was 32 nmol/head, the “ED50, Method (A), intraventricular” value [3] was 0.63 nmol/head and the “ED50, Method (B), intraventricular” value [4] was 0.24 nmol/head.

For `CC[C@@H](C)[C@@H](NC(=O)[C@H](CCCNC(=N)N)NC(=O)[C@H](CCCNC(=N)N)NC(=O)[C@H](CC(C)C)NC(=O)[C@H](Cc1ccccc1)NC(=O)CNC(=O)CNC(=O)[C@H](Cc1ccc(O)cc1)NC)C(=O)N[C@@H](CCCNC(=N)N)C(=O)N1CCC[C@H]1C(=O)N[C@@H](CCCCN)C(=O)N[C@H](CC(C)C)C(=O)N[C@@H](CCCCN)C(=O)N[C@@H](Cc1c[nH]c2ccccc12)C(N)=O` [Compound of the present invention, N-Me-Tyr-Gly-Gly-Phe-Leu-Arg-Arg-D.Ile-Arg-Pro-Lys-D.Leu-Lys-Trp-NH2], the “analgesic effect compared with morphine on a molar basis” value ([3]; intravenous administration) was “higher than that of morphine”, the “ED50, Method (A), intravenous” value [3] was 3.4 nmol/head and the “ED50, Method (A), intraventricular” value [3] was 0.017 nmol/head. For the same compound, the IC50 ([5]; concentration required to decrease electrically stimulated contraction to 50%, guinea pig ileum longitudinal muscle, read-out: IC50, Method (A)) was 0.35 ± 0.2 nM, the “inhibition of contraction, fold as highly as morphine” value ([5]; guinea pig longitudinal muscle of ileum, relative to morphine) was “approximately 270 fold” and the “ED50, Method (B), intraventricular” value [4] was 0.017 nmol/head. For the same compound, the IC50 (mouse vas deferens; concentration required to decrease electrically stimulated contraction to 50%, read-out: IC50, Method (B)) was 1.1 ± 0.4 nM and the “inhibition of contraction, fold as highly as morphine” value (mouse vas deferens; relative to morphine) was “approximately 970 fold”.
